This is an account of results in patent US8895733B2 (Novartis AG, priority 2010, dated 2014).

The target in assay [1] is T1, Nav 1.7 (Homo sapiens, UniProt Q15858).
T1 construct: expressed in transfected cells
Nature of the assay: Whole-cell voltage clamp electrophysiology, manual patch clamp (marker b in Table of Examples). The following applies: marker b: Manual patch clamp data; read-out: Nav 1.7 activity. The assay is classed as cell-based. The procedure, abridged:
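Manual whole-cell patch clamp on cells expressing human NaV1.7, compounds applied by microperfusion. Protocol biased to inactivated-state block: holding −60 mV, hyperpolarizing step −120 mV for 100 ms, then depolarization to −20 mV for 25 ms, pulses at 0.1 Hz.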

The target of the next assay is T2, Nav1.5 (Homo sapiens, UniProt Q14524).
T2 construct: expressed in transfected cells
T2 sequence (Q14524 whole entry): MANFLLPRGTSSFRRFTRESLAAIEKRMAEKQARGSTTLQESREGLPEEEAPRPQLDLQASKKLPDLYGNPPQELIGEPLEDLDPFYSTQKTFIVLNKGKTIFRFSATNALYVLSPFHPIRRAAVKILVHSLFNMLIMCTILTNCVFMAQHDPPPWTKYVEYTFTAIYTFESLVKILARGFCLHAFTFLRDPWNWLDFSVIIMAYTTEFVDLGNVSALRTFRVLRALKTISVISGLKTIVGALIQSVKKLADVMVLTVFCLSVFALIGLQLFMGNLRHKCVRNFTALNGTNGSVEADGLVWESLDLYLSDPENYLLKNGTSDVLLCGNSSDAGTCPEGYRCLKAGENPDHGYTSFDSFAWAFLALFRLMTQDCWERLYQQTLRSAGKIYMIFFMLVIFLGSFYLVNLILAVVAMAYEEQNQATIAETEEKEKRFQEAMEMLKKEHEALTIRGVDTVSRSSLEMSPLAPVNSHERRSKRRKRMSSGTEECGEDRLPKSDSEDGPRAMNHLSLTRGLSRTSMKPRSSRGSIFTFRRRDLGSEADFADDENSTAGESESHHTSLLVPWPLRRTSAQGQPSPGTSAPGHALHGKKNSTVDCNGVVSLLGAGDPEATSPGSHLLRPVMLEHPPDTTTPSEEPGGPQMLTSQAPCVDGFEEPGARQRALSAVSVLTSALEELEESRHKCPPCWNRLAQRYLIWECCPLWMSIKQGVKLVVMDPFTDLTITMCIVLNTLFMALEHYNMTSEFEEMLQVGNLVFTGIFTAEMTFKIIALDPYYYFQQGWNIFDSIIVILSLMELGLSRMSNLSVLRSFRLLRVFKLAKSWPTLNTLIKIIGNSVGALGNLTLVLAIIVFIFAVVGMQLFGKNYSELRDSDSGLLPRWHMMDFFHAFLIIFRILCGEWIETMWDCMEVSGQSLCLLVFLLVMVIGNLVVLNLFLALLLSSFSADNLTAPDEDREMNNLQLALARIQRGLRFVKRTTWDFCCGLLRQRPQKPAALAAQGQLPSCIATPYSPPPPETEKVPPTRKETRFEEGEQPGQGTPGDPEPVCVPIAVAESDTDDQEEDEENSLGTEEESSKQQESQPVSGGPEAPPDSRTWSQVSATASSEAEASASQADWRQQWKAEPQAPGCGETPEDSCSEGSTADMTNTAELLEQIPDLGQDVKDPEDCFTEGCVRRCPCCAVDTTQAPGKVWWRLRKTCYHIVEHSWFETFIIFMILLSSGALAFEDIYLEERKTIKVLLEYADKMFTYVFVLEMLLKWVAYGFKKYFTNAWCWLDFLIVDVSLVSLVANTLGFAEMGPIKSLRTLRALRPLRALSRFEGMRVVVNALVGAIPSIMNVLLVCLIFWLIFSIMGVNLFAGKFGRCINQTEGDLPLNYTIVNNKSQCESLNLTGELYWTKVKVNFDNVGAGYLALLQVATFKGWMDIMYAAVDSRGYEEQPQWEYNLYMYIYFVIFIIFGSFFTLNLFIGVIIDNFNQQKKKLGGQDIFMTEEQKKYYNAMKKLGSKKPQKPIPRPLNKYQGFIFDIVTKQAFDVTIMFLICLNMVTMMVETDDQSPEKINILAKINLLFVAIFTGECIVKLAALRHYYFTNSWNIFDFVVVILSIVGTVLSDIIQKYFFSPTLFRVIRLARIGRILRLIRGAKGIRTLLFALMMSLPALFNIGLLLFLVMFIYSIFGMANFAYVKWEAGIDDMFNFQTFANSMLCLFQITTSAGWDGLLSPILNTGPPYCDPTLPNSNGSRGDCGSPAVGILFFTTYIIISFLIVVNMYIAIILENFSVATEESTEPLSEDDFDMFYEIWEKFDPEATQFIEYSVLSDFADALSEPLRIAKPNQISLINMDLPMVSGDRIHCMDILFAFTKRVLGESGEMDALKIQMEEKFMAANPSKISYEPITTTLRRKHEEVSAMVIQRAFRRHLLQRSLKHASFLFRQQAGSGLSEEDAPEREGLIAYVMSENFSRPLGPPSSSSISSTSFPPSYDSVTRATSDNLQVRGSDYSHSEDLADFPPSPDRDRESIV
Nature of the assay: Inhibition of Nav1.5 as measured using QPatch. It counts as cell-based. The source says:
Patch-clamp electrophysiology is considered the gold standard technique for investigation of ion channel function and pharmacology. Using this method, sodium channel currents can be measured in cells, which stably (or transiently) express the sodium channel subtype of interest. Application of compounds during such experiments provides a functional measure of the activity and potency of compounds affecting the ion channel of interest.
Electrophysiological studies can be performed using automated or manual patch-clamp techniques. Automated patch-clamp instruments suitable for this work include the Ion Works HT (MDS), Ion Works Quattro (MDS), PatchLiner (Nanion technologies), Port-A-Patch (Nanion technologies), QPatch (Sophion) or any other suitable platform.
For recording in automated patch-clamp instruments, cells expressing the voltage-gated sodium channel subtype of interest are dispensed in appropriate chips (plates with more than one recording chambers each containing one or more apertures to generate whole-cell patches), as provided by the manufacturer. Typically, the whole-cell perforated patch configuration is used for probing the pharmacology of compounds in automated patch-clamp electrophysiology on sodium channels. Extracellular and intracellular buffers for such experiments are composed according to the literature, or according to the instructions provided by the manufacturer of the instruments. Test solutions, which contain the compounds to be tested, are applied to the cells expressing the sodium channel of interest by a pipetting system, typically integrated into the robots.
A suitable voltage stimulus protocol is used to activate voltage-gated sodium channel proteins of interest. A typical stimulus protocol may consist of sweeps of sequential voltage pulses starting from a holding potential (i.e. −65 mV), to a more positive and depolarising test pulse potential (i.e. −10 mV) and finally to a more negative and hyperpolarising potential (i.e. −100 mV). According to the biophysics of the voltage-gated ion channel of interest and interest in channel configuration the voltages and durations of the pulses as well as the overall frequency of sweeps applied might vary. Accordingly, a stimulus protocol was designed to assess compounds due to their potential to block NaV1.7 channels primarily in inactivated state. Selectivity over other voltage-gated sodium channel members was assessed by protocols that reflect the native function of the channels (i.e. heart rate or firing of neurons).
Inhibition of Nav1.5 by Compounds of formula (I) as measured using QPatch

In assay [2] the test system is inflammatory pain induced by intraplantar injection of Complete Freund's Adjuvant. Description: FCA (Freund's Complete Adjuvant) test, model of inflammatory pain. The assay is classed as in vivo. The following applies: rat, tested 72 h post FCA injection. As for the experimental part:
Compounds of formula (I) may show analgesic activity in the FCA (Freund's Complete Adjuvant) test in the rat, a model of inflammatory pain which is induced by intraplantar injection of Complete Freund's Adjuvant (Stein et al. Pharmac. Biochem. Behav., 1988, 31, 445-451). […] Thus, the local anesthetic effect may not mask the analgesic properties of the compounds (Scott et al., British Journal of Anaesthesia, 1988, 61, 165-8). […] All compounds were tested 72 h post FCA injection.

Assay [3] deals with T1, Nav 1.7. Nature of the assay: Nav 1.7 activity in Table of Examples, no platform marker printed. The assay is classed as cell-based. The note with it: no marker a/b/c printed in the cell. From the text:
a.IonWork Quattro data, b=Manual patch clamp data, c=Automated patch clamp data M=Method

T1 sequence (Q15858 whole entry): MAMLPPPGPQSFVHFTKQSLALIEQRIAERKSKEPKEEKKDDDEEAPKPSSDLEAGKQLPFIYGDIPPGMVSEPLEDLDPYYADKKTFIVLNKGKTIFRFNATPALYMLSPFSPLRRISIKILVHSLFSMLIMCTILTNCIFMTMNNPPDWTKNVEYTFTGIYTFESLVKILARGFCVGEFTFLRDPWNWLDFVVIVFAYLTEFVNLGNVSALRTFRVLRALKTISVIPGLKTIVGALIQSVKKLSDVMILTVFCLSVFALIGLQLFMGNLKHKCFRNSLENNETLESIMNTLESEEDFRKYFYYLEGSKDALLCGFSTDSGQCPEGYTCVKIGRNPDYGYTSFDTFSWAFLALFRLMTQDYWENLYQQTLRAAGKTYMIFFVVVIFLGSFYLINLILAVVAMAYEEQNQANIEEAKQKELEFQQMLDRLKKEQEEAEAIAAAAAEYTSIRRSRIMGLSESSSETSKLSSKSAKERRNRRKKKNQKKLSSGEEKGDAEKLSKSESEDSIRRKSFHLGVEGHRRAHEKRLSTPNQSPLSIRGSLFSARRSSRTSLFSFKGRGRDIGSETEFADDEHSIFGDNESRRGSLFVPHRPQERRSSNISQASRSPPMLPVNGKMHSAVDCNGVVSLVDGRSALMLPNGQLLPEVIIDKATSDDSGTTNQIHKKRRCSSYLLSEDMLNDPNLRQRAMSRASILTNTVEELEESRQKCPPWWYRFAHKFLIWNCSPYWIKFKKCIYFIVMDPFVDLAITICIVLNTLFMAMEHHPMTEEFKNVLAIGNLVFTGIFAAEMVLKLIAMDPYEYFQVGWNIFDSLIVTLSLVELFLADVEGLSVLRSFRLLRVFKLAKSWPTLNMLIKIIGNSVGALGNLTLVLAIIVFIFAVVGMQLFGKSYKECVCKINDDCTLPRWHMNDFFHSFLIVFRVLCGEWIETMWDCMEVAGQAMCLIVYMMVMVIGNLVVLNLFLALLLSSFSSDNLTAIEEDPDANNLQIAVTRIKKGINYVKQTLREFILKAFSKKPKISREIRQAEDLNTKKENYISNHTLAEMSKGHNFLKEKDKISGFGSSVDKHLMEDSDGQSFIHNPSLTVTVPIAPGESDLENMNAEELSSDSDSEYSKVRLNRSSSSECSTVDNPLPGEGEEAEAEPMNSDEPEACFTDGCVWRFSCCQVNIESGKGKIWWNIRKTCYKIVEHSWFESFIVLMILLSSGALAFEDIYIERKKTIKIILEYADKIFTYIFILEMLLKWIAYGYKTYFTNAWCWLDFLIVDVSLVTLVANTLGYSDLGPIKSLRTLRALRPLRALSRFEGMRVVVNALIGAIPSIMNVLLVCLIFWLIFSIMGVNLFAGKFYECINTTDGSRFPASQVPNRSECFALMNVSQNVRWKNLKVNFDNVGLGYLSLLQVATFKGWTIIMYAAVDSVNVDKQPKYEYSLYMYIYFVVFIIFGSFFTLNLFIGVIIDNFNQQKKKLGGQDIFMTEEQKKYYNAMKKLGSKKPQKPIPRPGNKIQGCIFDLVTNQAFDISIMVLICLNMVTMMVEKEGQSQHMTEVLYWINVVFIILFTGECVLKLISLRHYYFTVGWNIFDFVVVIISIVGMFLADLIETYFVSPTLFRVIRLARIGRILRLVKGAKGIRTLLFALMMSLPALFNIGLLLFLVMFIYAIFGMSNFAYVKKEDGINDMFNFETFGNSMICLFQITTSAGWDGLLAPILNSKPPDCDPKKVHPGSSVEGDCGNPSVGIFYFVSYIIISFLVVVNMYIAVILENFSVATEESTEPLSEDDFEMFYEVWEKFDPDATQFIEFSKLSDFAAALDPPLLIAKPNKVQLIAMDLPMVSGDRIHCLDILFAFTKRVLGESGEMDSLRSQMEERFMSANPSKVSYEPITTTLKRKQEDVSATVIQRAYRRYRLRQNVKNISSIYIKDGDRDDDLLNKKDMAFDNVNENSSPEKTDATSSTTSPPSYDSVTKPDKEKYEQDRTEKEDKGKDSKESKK

Turning to `CN(c1ccccc1)c1nc(N)nc(-c2noc(-c3ccc(OCC(F)(F)F)nc3)n2)n1` [Example 67, N-Methyl-N-phenyl-6-{5-[6-(2,2,2-trifluoroethoxy)-pyridin-3-yl]-[1,2,4]oxadiazol-3-yl}-[1,3,5]triazine-2,4-diamine], the IC50 worked out at 110 nM on Nav 1.7 [1] and 7060 nM on Nav1.5. In assay [2] (3 mg/kg p.o.), the “analgesic efficacy in FCA test” value was “efficacious”.
`Nc1nc(Nc2ccccc2)nc(-c2noc(-c3nccs3)n2)n1` [Example 130, N-Phenyl-6-(5-thiazol-2-yl-[1,2,4]oxadiazol-3-yl)-[1,3,5]triazine2,4-diamine]: the IC50 stood at 44 nM on Nav 1.7 [1] and 1670 nM on Nav1.5. For the same molecule, in assay [2] (1 mg/kg p.o.), the “analgesic efficacy in FCA test” value was “efficacious”.
Turning to `CN(c1ccccc1)c1nc(N)nc(-c2noc(-c3ccc(COCC(F)(F)F)nc3)n2)n1` [Example 291, 2-N-Methyl-2-N-phenyl-6-(5-{6-[(2,2,2-trifluoroethoxy)methyl]pyridin-3-yl}-1,2,4-oxadiazol-3-yl)-1,3,5-triazine-2,4-diamine], the IC50 at Nav 1.7 [3] was 73 nM.
